Consider 14 compounds from ChEMBL document CHEMBL3991601, “The target landscape of clinical kinase drugs” (Science, 2017).

Experiment [1] addresses Serine/threonine-protein kinase PAK 2 (Homo sapiens, UniProt Q13177).
In another experiment the target is Aurora kinase B (Homo sapiens, UniProt Q96GD4).
Experiment [2] has as its target T1, Mitogen-activated protein kinase kinase kinase 2 (Homo sapiens, UniProt Q9Y2U5).
T1 sequence (Q9Y2U5 whole entry): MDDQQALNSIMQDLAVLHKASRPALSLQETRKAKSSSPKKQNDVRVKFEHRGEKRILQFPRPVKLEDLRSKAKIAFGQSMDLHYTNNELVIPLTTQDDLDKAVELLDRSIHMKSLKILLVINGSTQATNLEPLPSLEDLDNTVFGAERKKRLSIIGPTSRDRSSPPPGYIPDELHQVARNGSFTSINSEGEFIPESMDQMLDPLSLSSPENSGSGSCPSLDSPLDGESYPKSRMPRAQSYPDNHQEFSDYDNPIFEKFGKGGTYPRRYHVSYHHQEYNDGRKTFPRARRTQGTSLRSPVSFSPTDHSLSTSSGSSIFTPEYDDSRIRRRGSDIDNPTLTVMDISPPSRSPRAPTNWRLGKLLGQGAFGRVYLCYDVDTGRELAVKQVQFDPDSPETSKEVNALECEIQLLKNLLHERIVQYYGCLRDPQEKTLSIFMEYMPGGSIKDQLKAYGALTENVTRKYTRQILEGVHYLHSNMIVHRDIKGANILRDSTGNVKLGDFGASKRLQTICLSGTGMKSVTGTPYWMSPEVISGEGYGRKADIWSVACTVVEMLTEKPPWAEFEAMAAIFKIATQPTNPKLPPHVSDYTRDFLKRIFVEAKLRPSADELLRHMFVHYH

The target in experiment [3] is T2, Breakpoint cluster region protein (Homo sapiens, UniProt P11274).
T2 sequence (P11274 whole entry): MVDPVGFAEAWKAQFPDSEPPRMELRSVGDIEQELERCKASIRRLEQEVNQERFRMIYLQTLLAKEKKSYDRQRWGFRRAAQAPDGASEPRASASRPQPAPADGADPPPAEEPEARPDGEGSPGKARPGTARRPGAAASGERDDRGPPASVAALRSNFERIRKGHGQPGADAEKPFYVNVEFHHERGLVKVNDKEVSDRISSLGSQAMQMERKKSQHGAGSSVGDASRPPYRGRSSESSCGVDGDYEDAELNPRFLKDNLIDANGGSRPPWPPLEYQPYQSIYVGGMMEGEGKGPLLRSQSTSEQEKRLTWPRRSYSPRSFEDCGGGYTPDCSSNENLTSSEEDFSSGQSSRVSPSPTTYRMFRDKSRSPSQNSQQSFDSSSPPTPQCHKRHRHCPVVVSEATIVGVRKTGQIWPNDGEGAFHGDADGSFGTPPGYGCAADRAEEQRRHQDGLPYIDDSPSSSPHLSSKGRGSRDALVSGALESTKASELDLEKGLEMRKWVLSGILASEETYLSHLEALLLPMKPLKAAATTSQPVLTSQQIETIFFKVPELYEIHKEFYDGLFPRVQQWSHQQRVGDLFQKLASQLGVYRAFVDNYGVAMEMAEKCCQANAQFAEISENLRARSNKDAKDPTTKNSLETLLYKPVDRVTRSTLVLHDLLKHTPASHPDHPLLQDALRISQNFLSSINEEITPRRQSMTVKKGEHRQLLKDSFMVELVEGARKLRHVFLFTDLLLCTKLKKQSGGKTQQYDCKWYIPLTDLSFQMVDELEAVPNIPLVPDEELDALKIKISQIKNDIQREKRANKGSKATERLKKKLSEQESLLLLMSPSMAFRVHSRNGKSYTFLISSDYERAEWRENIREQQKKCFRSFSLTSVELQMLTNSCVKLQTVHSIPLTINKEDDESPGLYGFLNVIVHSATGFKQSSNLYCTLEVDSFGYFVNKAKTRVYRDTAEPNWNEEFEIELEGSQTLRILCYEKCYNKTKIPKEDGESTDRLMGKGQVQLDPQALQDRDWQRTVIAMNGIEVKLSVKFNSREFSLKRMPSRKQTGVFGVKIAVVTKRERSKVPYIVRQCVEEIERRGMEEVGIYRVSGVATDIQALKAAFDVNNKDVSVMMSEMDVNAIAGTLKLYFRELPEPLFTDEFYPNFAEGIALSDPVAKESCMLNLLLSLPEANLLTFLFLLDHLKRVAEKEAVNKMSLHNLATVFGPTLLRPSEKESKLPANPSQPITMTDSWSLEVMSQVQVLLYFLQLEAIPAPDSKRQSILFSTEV

The target in another experiment is Insulin receptor (Homo sapiens, UniProt P06213).
Chain of Insulin receptor (P06213 28-758 limits assumed): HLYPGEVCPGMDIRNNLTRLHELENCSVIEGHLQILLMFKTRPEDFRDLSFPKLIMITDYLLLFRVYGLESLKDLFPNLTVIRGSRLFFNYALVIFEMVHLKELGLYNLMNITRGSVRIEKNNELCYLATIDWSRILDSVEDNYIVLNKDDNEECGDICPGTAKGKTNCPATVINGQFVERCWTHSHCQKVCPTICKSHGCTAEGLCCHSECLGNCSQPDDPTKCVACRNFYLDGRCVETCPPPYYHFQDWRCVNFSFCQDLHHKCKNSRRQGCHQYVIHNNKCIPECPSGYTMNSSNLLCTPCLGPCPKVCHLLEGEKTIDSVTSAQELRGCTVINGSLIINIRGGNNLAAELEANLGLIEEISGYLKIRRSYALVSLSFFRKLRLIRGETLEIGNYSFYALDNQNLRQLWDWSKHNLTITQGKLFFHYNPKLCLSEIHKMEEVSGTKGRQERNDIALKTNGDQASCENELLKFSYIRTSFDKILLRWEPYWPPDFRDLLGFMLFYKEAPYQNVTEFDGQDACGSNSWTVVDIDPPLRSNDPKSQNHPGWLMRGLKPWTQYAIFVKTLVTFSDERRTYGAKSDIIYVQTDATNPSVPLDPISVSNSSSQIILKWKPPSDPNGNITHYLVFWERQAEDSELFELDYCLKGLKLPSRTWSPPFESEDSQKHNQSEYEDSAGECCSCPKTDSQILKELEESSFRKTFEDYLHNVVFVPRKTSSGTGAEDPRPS
Chain of Insulin receptor (P06213 763-1382 limits assumed): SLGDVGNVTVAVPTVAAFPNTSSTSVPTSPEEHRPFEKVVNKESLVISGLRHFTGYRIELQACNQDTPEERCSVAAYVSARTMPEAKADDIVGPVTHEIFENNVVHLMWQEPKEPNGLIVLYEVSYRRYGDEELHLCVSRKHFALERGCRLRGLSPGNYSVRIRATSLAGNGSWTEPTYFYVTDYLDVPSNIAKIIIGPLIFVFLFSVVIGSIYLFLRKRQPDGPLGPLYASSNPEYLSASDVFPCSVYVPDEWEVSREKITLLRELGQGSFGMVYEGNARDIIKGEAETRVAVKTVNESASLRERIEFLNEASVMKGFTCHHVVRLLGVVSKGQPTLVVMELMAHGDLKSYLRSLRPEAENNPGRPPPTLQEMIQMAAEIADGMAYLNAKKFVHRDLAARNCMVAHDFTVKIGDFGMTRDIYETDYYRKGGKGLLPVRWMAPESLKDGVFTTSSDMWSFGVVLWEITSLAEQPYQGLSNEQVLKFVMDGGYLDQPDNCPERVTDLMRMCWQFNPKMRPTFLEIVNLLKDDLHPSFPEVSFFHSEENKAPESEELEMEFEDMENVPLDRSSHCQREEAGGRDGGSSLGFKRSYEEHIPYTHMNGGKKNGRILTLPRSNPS
In experiment [4] the target is Casein kinase I isoform delta (Homo sapiens, UniProt P48730).
Chain of Casein kinase I isoform delta (P48730 whole entry, canonical isoform): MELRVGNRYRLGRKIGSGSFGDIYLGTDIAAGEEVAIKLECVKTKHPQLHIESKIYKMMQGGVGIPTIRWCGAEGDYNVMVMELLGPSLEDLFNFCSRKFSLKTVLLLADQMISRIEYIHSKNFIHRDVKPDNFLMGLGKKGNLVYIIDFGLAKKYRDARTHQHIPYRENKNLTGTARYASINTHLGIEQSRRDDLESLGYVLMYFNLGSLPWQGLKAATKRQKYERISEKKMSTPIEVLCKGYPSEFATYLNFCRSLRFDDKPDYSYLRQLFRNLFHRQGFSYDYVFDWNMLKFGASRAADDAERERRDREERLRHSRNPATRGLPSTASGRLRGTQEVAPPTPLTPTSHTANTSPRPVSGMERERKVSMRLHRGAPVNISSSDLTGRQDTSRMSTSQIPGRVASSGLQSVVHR
In experiment [5] the target is Cyclin-dependent kinase 12 (Homo sapiens, UniProt Q9NYV4).
Chain of Cyclin-dependent kinase 12 (Q9NYV4 whole entry): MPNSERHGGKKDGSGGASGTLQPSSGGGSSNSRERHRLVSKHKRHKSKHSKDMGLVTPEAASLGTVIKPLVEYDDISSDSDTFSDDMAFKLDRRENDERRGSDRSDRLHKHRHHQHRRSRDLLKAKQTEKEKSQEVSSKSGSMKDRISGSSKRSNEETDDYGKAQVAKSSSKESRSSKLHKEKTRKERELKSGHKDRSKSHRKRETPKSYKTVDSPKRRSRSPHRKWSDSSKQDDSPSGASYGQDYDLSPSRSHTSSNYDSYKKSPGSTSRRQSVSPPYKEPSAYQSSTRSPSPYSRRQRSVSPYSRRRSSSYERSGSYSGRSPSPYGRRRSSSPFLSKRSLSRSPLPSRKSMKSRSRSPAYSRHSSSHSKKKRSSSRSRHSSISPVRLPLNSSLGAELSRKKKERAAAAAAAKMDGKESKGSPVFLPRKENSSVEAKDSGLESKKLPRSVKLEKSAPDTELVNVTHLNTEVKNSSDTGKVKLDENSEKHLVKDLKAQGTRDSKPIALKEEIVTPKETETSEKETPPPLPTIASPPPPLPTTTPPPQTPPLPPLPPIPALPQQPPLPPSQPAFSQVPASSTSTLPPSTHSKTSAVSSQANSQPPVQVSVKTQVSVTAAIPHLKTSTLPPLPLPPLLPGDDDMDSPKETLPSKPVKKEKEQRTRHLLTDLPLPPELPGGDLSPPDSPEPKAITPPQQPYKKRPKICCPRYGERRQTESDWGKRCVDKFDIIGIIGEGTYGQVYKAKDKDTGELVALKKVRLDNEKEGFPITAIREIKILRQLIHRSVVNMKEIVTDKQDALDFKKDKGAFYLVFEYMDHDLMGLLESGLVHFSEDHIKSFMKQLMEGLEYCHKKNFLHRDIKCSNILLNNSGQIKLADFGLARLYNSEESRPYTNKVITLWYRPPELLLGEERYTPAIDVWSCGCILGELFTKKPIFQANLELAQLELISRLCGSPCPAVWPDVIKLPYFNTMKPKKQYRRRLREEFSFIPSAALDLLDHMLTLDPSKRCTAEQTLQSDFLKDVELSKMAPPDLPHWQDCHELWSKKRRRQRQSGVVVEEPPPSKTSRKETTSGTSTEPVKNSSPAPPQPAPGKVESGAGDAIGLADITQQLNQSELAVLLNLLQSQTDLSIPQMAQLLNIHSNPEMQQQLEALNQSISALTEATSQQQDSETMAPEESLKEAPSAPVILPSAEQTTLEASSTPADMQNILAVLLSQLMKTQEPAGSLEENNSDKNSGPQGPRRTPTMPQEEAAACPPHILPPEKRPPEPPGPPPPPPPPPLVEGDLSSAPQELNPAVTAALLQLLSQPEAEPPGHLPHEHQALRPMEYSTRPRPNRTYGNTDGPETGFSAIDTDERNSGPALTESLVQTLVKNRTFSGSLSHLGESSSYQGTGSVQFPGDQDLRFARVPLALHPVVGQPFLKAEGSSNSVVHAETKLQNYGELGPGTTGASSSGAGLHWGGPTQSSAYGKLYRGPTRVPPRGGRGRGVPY
Experiment [6] concerns the target T3, Phosphatidylinositol 5-phosphate 4-kinase type-2 alpha (Homo sapiens, UniProt P48426).
T3 sequence (P48426 whole entry): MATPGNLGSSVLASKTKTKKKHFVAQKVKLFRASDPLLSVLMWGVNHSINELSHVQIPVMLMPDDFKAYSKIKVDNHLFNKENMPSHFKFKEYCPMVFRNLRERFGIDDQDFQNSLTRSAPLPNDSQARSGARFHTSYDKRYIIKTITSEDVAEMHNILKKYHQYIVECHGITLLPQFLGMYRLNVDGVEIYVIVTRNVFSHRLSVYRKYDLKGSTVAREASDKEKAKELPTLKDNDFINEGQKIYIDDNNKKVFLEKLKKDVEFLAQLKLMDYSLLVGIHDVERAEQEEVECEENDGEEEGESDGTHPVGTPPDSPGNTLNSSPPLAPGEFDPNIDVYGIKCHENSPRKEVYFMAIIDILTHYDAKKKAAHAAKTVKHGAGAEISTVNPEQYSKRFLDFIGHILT

Active and inactive are the calls of the source. Cut-off read from the data, not from the text of the source, for most assays here: actives have a measured Kd and inactives only a lower limit. A value given as a limit tells only on which side of the number the result lay.
Note: in the data inactive means no Kd found up to 30 µM.

Chain of Aurora kinase B (Q96GD4 whole entry): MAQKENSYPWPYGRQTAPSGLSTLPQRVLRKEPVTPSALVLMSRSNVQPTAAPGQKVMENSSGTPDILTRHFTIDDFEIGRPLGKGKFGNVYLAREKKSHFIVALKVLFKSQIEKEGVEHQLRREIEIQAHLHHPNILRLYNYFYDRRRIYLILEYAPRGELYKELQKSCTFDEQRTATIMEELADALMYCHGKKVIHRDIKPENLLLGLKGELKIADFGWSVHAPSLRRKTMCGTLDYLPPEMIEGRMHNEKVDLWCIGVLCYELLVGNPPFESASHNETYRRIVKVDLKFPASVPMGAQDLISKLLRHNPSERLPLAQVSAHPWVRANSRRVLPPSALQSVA
Chain of Serine/threonine-protein kinase PAK 2 (Q13177 whole entry): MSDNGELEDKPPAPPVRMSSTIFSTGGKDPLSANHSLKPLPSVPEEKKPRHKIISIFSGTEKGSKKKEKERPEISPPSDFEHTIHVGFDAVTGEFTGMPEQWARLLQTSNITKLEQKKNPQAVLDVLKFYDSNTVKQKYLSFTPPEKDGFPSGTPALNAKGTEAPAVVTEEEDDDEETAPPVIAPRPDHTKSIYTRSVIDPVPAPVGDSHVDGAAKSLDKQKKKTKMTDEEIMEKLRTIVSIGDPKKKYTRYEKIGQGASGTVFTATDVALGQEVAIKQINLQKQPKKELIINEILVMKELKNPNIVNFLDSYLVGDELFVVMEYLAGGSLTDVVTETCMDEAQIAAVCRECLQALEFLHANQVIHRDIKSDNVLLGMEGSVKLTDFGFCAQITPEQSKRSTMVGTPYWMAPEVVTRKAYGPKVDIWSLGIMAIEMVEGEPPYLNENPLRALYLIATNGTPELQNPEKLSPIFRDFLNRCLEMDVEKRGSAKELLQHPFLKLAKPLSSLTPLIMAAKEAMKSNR

With `Cc1ccc(C(=O)Nc2ccc(Oc3cc4cnn(C)c4cc3-c3cn[nH]c3)c(F)c2)c(=O)n1-c1ccc(F)cc1` [MERESTINIB], the Kd (in experiment [1]; on Aurora kinase B; in experiment [2]; in experiment [3]; at Insulin receptor; in experiment [4]) was > 30 µM (inactive) each time. In addition, the Kd in experiment [5] and in experiment [6] was > 30 µM (inactive) in each case.
`COc1cc(F)c(F)c(Nc2ccc(I)cc2F)c1NS(=O)(=O)C1(C[C@H](O)CO)CC1` [REFAMETINIB]: the Kd (in experiment [1]; at Aurora kinase B; in experiment [2]; in experiment [3]; at Insulin receptor; in experiment [4]) was > 30 µM (inactive) each time. Further, the Kd in experiment [5] and in experiment [6] was > 30 µM (inactive) in each case.
`O[C@H]1CC[C@H](Nc2ncc3nc(Nc4c(F)cc(F)cc4F)n([C@H]4CCOC4)c3n2)CC1` [TANZISERTIB]: the Kd (in experiment [1]; at Aurora kinase B; in experiment [2]; in experiment [3]; at Insulin receptor; in experiment [4]) was > 30 µM (inactive) in each case. Moreover, the Kd in experiment [5] and in experiment [6] was > 30 µM (inactive) in each case.
For `CNC(=O)c1cccc(-c2ccc3c(N4CCOC[C@@H]4C)nc(N4CCOC[C@@H]4C)nc3n2)c1` [VISTUSERTIB], the Kd (in experiment [1]; at Aurora kinase B; in experiment [2]; in experiment [3]; at Insulin receptor; in experiment [4]) was > 30 µM (inactive) in each case. Moreover, the Kd in experiment [5] and in experiment [6] was > 30 µM (inactive) in each case.
Turning to `CC1(COc2ccc3c(c2)ncn3-c2ccc3cccc(N4CCC(N)CC4)c3n2)COC1` [CRENOLANIB], the Kd (in experiment [1]; at Aurora kinase B; in experiment [2]; in experiment [3]; on Insulin receptor; in experiment [4]) was > 30 µM (inactive) each time. The Kd in experiment [5] and in experiment [6] was > 30 µM (inactive) each time.
For the compound `Cc1cc(-c2cc(OC(=O)c3ccccc3)ccc2Cl)cc2nnc(Nc3ccc(OCCN4CCCC4)cc3)nc12` [TG100-801], the Kd (usually the equilibrium constant for the complex coming apart) in experiment [1] is > 30 µM (inactive); at Aurora kinase B it was > 30 µM (inactive); in experiment [2], > 30 µM (inactive); in experiment [3] it was 0.065 µM (active); on Insulin receptor, > 30 µM (inactive); in experiment [4] it was > 30 µM (inactive). Moreover, the Kd in experiment [5] and in experiment [6] was > 30 µM (inactive) throughout.
`CNC(=O)c1ccc(Nc2ncc(C(F)(F)F)c(NCc3nccnc3N(C)S(C)(=O)=O)n2)cc1` [DEFACTINIB]: the Kd in experiment [1] was > 30 µM (inactive); at Aurora kinase B, 1.46 µM (active); in experiment [2], > 30 µM (inactive); in experiment [3], > 30 µM (inactive); at Insulin receptor, > 30 µM (inactive); in experiment [4] it was > 30 µM (inactive). Besides, the Kd in experiment [5] is 0.73 µM (active); in experiment [6], > 30 µM (inactive).
Consider `Cc1cc(C(=O)Nc2cc(Oc3ccc4nc(NC(=O)C5CC5)cn4n3)ccc2C)n(C)n1` [TAK-593], for which the Kd in experiment [1] was > 30 µM (inactive); at Aurora kinase B, > 30 µM (inactive); in experiment [2], > 30 µM (inactive); in experiment [3], 0.035 µM (active); at Insulin receptor, > 30 µM (inactive); in experiment [4], > 30 µM (inactive). The Kd in experiment [5] and in experiment [6] was > 30 µM (inactive) throughout.
As to `N#CCNC(=O)c1ccc(-c2ccnc(Nc3ccc(N4CCOCC4)cc3)n2)cc1` [MOMELOTINIB], the Kd (in experiment [1]; at Aurora kinase B; in experiment [2]; in experiment [3]; on Insulin receptor; in experiment [4]) was > 30 µM (inactive) in each case. Also, the Kd in experiment [5] and in experiment [6] was > 30 µM (inactive) in each case.
On to `c1cc(OCCN2CCCCC2)cc(-c2n[nH]c3ccc(-c4nc[nH]n4)cc23)c1` [CC-401], for which the Kd in experiment [1] was > 30 µM (inactive); on Aurora kinase B, > 30 µM (inactive); in experiment [2] it was > 30 µM (inactive); in experiment [3], > 30 µM (inactive); at Insulin receptor, > 30 µM (inactive); in experiment [4] it was 0.287 µM (active). The Kd in experiment [5] and in experiment [6] was > 30 µM (inactive) throughout.
In the case of `O=S(=O)(c1cccc2c(O)nccc12)N1CCCNCC1` [HYDROXYFASUDIL], the Kd (in experiment [1]; at Aurora kinase B; in experiment [2]; in experiment [3]; at Insulin receptor; in experiment [4]) was > 30 µM (inactive) throughout. The Kd in experiment [5] and in experiment [6] was > 30 µM (inactive) throughout.
Regarding `CCN1CCN(Cc2ccc(Nc3ncc(F)c(-c4cc(F)c5nc(C)n(C(C)C)c5c4)n3)nc2)CC1` [ABEMACICLIB], the Kd (in experiment [1]; at Aurora kinase B; in experiment [2]; in experiment [3]; at Insulin receptor; in experiment [4]) was > 30 µM (inactive) in each case. Besides, the Kd in experiment [5] and in experiment [6] was > 30 µM (inactive) throughout.
As to `O=c1[nH]c([C@@H]2CCCN2)nc2c1oc1ccc(Cl)cc12`, the Kd (in experiment [1]; on Aurora kinase B; in experiment [2]; in experiment [3]; on Insulin receptor; in experiment [4]) was > 30 µM (inactive) each time. Moreover, the Kd in experiment [5] and in experiment [6] was > 30 µM (inactive) throughout.
In the case of `COc1cc2ncnc(Nc3ccc(O)cc3)c2cc1OC` [WHI-P131], the Kd (in experiment [1]; on Aurora kinase B; in experiment [2]; in experiment [3]; at Insulin receptor; in experiment [4]) was > 30 µM (inactive) each time. Besides, the Kd in experiment [5] and in experiment [6] was > 30 µM (inactive) throughout.
